# Reference: patent US20260022094A1, “Compounds for the Treatment of Neurodegenerative Diseases” (Celgene Corporation, priority 2022, published 2026)
# Biological target: T1, S1P5 receptors (Homo sapiens, UniProt Q9H228)
# T1 construct: expressed in transfected cells; host or cells: CHO cells (membranes)
# Assay: [35S]-GTPγS binding assay on CHO-S1P5 membranes (S1P5 agonism)
# Assay type: biochemical
# Settings: membranes of CHO cells expressing recombinant S1P5; measure of S1P5 agonism
# Experimental: CHO cells expressing recombinant S1P5 receptors were cultured in 500 cm^2 culture trays and, once confluent, rinsed and detached with cell-lifting buffer (10 mM HEPES, 154 mM NaCl, 6.85 mM EDTA, pH 7.4). Cells were then pelleted by centrifugation, resuspended, and homogenized in membrane preparation buffer (10 mM HEPES and 10 mM EDTA, pH 7.4) using a Polytron PT 1200E homogenizer (Kinematica, Luzern, Switzerland). Cellular proteins were pelleted by centrifugation at 48,000×g at 4° C. for 30 minutes. The resulting supernatant was discarded, and the pellet was re-suspended again in membrane preparation buffer, homogenized for a second time, and then centrifuged again as described above. The final cellular protein pellet was suspended in ice cold resuspension buffer (10 mM HEPES and 0.1 mM EDTA, pH 7.4), divided into aliquots, and stored at −80° C. until use.
# Functional binding assays for [^35S]-GTPγS were performed in 96-well non-binding surface plates with a final volume of 200 μL. The test compounds were serially diluted in DMSO and added to assay plates using a Tecan D300E digital printer with a total volume of 0.4 μL. The control sphingosine-1-phosphate (SIP) was prepared separately by preparing a 400 µM stock solution from a 100 nmol pellet of S1P in 10 mM Na2CO3 with 2% β-cyclodextrin. The serial dilution of S1P was done using complete assay buffer (20 mM HEPES, 10 mM MgCl2, 100 mM NaCl, 1 mM EDTA, 0.1% fatty acid free bovine serum albumin (BSA), and 30 μg/mL saponin, pH 7.4) and transferred to wells already containing 0.4 μL DMSO. All the wells were then loaded to a total volume of 40 μL of complete assay buffer, except the non-specific binding (NSB) wells. For NSB wells, 40 μL/well of 50 μM GTPγS (Sigma Aldrich, cat #G8634, St. Louis, MO) was added to wells containing 0.4 μL of DMSO. The assay was started by the addition of 120 μL/well of CHO-SIP receptor membrane solution containing 40 μg/mL of membrane protein, 16.67 μM guanosine diphosphate (GDP; Sigma Aldrich, cat #G7127, St. Louis, MO), and 2.5 mg/mL of WGA PVT SPA beads in complete buffer. Assay plates were then sealed and incubated at room temperature with gentle agitation for 30 minutes. Next, 40 μL/well of 1 nM of [^35S]-GTPγS (PerkinElmer, cat #NEG030X^250UC, Waltham, MA) in basic assay buffer (20 mM HEPES, 10 mM MgCl2, 100 mM NaCl, and 1 mM EDTA, pH7.4) was added to the assay plates to yield a final concentration of […] and the plates were further incubated for 40 minutes at room temperature with gentle agitation. The assay was terminated by centrifugation of the plates at 1000 rpm for 3 minutes using an Eppendorf 5810R centrifuge (Eppendorf, Hamburg, Germany) and G protein bound radioactivity was quantitated using a MicroBeta2 microplate scintillation counter (PerkinElmer, Waltham, MA). As G protein bound radioactivity directly correlates to receptor activation and coupling to the G protein, this assay is a measure of S1P5 agonism.
# T1 sequence (Q9H228 whole entry): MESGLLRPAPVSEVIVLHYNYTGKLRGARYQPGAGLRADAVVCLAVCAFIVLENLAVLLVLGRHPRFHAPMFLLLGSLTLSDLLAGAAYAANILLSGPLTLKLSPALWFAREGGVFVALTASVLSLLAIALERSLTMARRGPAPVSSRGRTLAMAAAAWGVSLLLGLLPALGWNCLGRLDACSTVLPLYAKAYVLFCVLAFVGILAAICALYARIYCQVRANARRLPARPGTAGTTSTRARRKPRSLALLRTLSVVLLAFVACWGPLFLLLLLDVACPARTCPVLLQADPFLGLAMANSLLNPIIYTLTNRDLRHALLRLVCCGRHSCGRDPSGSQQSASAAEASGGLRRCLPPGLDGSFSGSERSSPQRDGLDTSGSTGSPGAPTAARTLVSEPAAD
row,Structure (SMILES),EC50 [nM]
1,"CC1(O)CN(Cc2ccc(N3CC(c4c(Cl)cccc4Cl)C3)c(F)c2)C1 [Compound 67, 1-(4-(3-(2,6-dichlorophenyl)azetidin-1-yl)-3-fluorobenzyl)-3-methylazetidin-3-ol]",10 to 100
2,"CC1(O)CN(Cc2ccc(C3CN(c4c(Cl)cccc4Cl)C3)nc2)C1 [Compound 58, 1-((6-(1-(2,6-dichlorophenyl)azetidin-3-yl)pyridin-3-yl)methyl)-3-methylazetidin-3-ol]",1000 to 10000
3,"CCc1cc(C2CN(c3c(Cl)cccc3Cl)C2)cc(C)c1CN1CC(C)(O)C1 [Compound 51, 1-(4-(1-(2,6-dichlorophenyl)azetidin-3-yl)-2-ethyl-6-methylbenzyl)-3-methylazetidin-3-ol]",10 to 100
4,"Cc1c(OCc2c(Cl)cccc2Cl)ccc2c1CCC2N1CC(C)(O)C1 (single isomer, unassigned) [Compound 19a, 1-[5-[(2,6-dichlorophenyl)methoxy]-4-methyl-indan-1-yl]-3-methyl-azetidin-3-ol]",1 to 10
5,"Cc1c(C#Cc2cccc(F)c2)ccc2c1CCC2N1CC(C)(O)C1 (single isomer, unassigned) [Compound 17b, 1-[5-[2-(3-fluorophenyl)ethynyl]-4-methyl-indan-1-yl]-3-methyl-azetidin-3-ol]",10 to 100
6,"CC1(O)CN(Cc2ccc(C3CN(c4c(Cl)cccc4Cl)C3)c(F)c2)C1 [Compound 60, 1-(4-(1-(2,6-dichlorophenyl)azetidin-3-yl)-3-fluorobenzyl)-3-methylazetidin-3-ol]",100 to 1000
7,"Cc1cc(N2CC(c3c(Cl)cccc3Cl)C2)c(C)cc1CN1CC(C)(O)C1 [Compound 62, 1-(4-(3-(2,6-dichlorophenyl)azetidin-1-yl)-2,5-dimethylbenzyl)-3-methylazetidin-3-ol]",1 to 10
8,"Cc1c(C#Cc2cccc(F)c2)ccc2c1CCC2N1CC(C)(O)C1 (single isomer, unassigned) [Compound 17a, 1-[5-[2-(3-fluorophenyl)ethynyl]-4-methyl-indan-1-yl]-3-methyl-azetidin-3-ol]",10 to 100
9,"Cc1cc(C2CN(c3c(Cl)cccc3Cl)C2)cc(C)c1CN1CC(O)(C(F)F)C1 [Compound 40, 1-(4-(1-(2,6-dichlorophenyl)azetidin-3-yl)-2,6-dimethylbenzyl)-3-(difluoromethyl) azetidin-3-ol]",100 to 1000
10,"CC1(O)CN(Cc2ccc(C3CN(c4c(Cl)cccc4Cl)C3)cc2F)C1 [Compound 61, 1-(4-(1-(2,6-dichlorophenyl)azetidin-3-yl)-2-fluorobenzyl)-3-methylazetidin-3-ol]",100 to 1000
11,"CC1(O)CCN(Cc2ccc(N3CC(c4c(Cl)cccc4Cl)C3)cc2)CC1 [Compound 32, 1-(4-(3-(2,6-dichlorophenyl)azetidin-1-yl)benzyl)-4-methylpiperidin-4-ol]",1000 to 10000
12,"CC1(O)CN(Cc2ccc(N3CC(c4c(Cl)cccc4Cl)C3)cc2F)C1 [Compound 65, 1-(4-(3-(2,6-dichlorophenyl)azetidin-1-yl)-2-fluorobenzyl)-3-methylazetidin-3-ol]",10 to 100
13,"Cc1cc(C2CN(c3ccccc3)C2)cc(C)c1CN1CC(C)(O)C1 [Compound 43, 1-(2,6-dimethyl-4-(1-phenylazetidin-3-yl)benzyl)-3-methylazetidin-3-ol]",1000 to 10000

# Now from value to molecule:
row,EC50 [nM],Structure (SMILES)
1,10 to 100,"Cc1cc(C#Cc2cccc(F)c2)cc2c1C(N1CC(C)(O)C1)CC2 (single isomer, unassigned) [Compound 13b, 1-[5-[2-(3-fluorophenyl)ethynyl]-7-methyl-indan-1-yl]-3-methyl-azetidin-3-ol]"
2,10 to 100,"CC1(O)CN(C2CCc3cc(C#Cc4cccc(F)c4)ccc32)C1 (single isomer, unassigned) [Compound 2b, 1-[5-[2-(3-fluorophenyl)ethynyl]indan-1-yl]-3-methyl-azetidin-3-ol]"
3,1 to 10,"Cc1cc(-c2ccc(C3CC3)c(Cl)c2)cc2c1C(N1CC(C)(O)C1)CC2 (single isomer, unassigned) [Compound 10a, 1-[5-(3-chloro-4-cyclopropyl-phenyl)-7-methyl-indan-1-yl]-3-methyl-azetidin-3-ol]"
4,100 to 1000,"Cc1cc(-c2ccc(C3CC3)c(Cl)c2)cc2c1C(N1CCC(C)(O)C1)CC2 (stereo not drawn) [Compound 12, 1-(5-(3-chloro-4-cyclopropylphenyl)-7-methyl-2,3-dihydro-1H-inden-1-yl)-3-methylpyrrolidin-3-ol]"
5,1 to 10,"Cc1c(-c2ccc(C3CC3)c(Cl)c2)ccc2c1CCC2N1CC(C)(O)C1 (single isomer, unassigned) [Compound 16a, 1-[5-(3-chloro-4-cyclopropyl-phenyl)-4-methyl-indan-1-yl]-3-methyl-azetidin-3-ol]"
6,100 to 1000,"Cc1cc(N2CC(c3c(Cl)cccc3Cl)C2)cc(C)c1CN1CCC(C)(O)CC1 [Compound 36, 1-(4-(3-(2,6-dichlorophenyl)azetidin-1-yl)-2,6-dimethylbenzyl)-4-methylpiperidin-4-ol]"
7,1 to 10,"Cc1cc(OCc2c(Cl)cccc2Cl)cc2c1C(N1CC(C)(O)C1)CC2 (single isomer, unassigned) [Compound 15a, 1-[5-[(2,6-dichlorophenyl)methoxy]-7-methyl-indan-1-yl]-3-methyl-azetidin-3-ol]"
8,1 to 10,"Cc1cc(-c2ccc(C3CC3)c(Cl)c2)c(C)c2c1C(N1CC(C)(O)C1)CC2 (single isomer, unassigned) [Compound 26a, 1-[5-(3-chloro-4-cyclopropyl-phenyl)-4,7-dimethyl-indan-1-yl]-3-methyl-azetidin-3-ol]"
9,10 to 100,"Cc1cc2c(cc1CCc1c(Cl)cccc1Cl)CCC2N1CC(C)(O)C1 (single isomer, unassigned) [Compound 23a, 1-[5-[2-(2,6-dichlorophenyl)ethyl]-6-methyl-indan-1-yl]-3-methyl-azetidin-3-ol]"
10,100 to 1000,"Cc1cc(C2CN(c3ccc(C4CC4)c(Cl)c3)C2)cc(C)c1CN1CC(C)(O)C1 [Compound 46, 1-(4-(1-(3-chloro-4-cyclopropylphenyl)azetidin-3-yl)-2,6-dimethylbenzyl)-3-methylazetidin-3-ol]"
11,1 to 10,"Cc1c(CCc2c(Cl)cccc2Cl)ccc2c1CCC2N1CC(C)(O)C1 (single isomer, unassigned) [Compound 18b, 1-[5-[2-(2,6-dichlorophenyl)ethyl]-4-methyl-indan-1-yl]-3-methyl-azetidin-3-ol]"
12,100 to 1000,"CC1(O)CN(C2CCc3cc(-c4ccc(C5CC5)c(F)c4)ccc32)C1 (single isomer, unassigned) [Compound 4b, 1-(5-(4-cyclopropyl-3-fluorophenyl)-2,3-dihydro-1H-inden-1-yl)-3-methyl azetidin-3-ol]"
13,1 to 10,"Cc1cc(-c2ccc(C3CC3)c(Cl)c2)c(C)c2c1C(N1CC(C)(O)C1)CC2 (single isomer, unassigned) [Compound 26b, 1-[5-(3-chloro-4-cyclopropyl-phenyl)-4,7-dimethyl-indan-1-yl]-3-methyl-azetidin-3-ol]"
14,1 to 10,"Cc1cc2c(cc1OCc1c(Cl)cccc1Cl)CCC2N1CC(C)(O)C1 (single isomer, unassigned) [Compound 24a, 1-[5-[(2,6-dichlorophenyl)methoxy]-6-methyl-indan-1-yl]-3-methyl-azetidin-3-ol]"
15,1 to 10,"Cc1c(-c2ccc(C3CC3)c(Cl)c2)cc2c(c1C)C(N1CC(C)(O)C1)CC2 (single isomer, unassigned) [Compound 27a, 1-(5-(3-chloro-4-cyclopropylphenyl)-6,7-dimethyl-2,3-dihydro-1H-inden-1-yl)-3-methylazetidin-3-ol]"
16,10 to 100,"Cc1cc2c(cc1-c1ccc(C3CC3)c(Cl)c1)CCC2N1CC(C)(O)C1 (single isomer, unassigned) [Compound 21a, 1-[5-(3-chloro-4-cyclopropyl-phenyl)-6-methyl-indan-1-yl]-3-methyl-azetidin-3-ol]"
17,100 to 1000,"CC1(O)CN(C2CCc3cc(C#Cc4cccc(F)c4)ccc32)C1 (single isomer, unassigned) [Compound 2a, 1-[5-[2-(3-fluorophenyl)ethynyl]indan-1-yl]-3-methyl-azetidin-3-ol]"
